“Also recorded” adds a separate entry of the source.
Tested on: calvarial skull bones (hemicalvaria)
Assay: Calvarial skull assay (bone organ culture, weight and histological readout)
Design: species or system CD1 mice
Method: CD1 pups are harvested around birth from CD1 female mice (received from Janvier (Le Genest St Isle, France) when they were 11 days pregnant). Pups are decapitated and the calvarial skull is dissected and split into 2 hemicalvaria. Hemicalvaria are blotted using sterile gauze, weighed and cultured in 24 well plates (MEMalpha or BGJb-Fitton-Jackson medium containing 50 μg/ml L-ascorbic acid (Sigma, A-4034), 5 mM β-glycerophosphate (Sigma, G-9891) and Penicillin-Streptomycin (Invitrogen Cat # 15140-122)). Small molecules (ligands, agonists, antagonists) are tested in at least three-fold at a minimum of 3 concentrations. Each small molecule is added to the medium on day 0 and added again when refreshing the medium (every 2-3 days). Three to 16 days after the start of the experiment, skulls are weighed again after blotting them dry using sterile gauze. The weight difference is calculated, expressed as percent weight change and the mean and standard deviations (SD) are calculated for the triplicate measurements. Data are analyzed using the Student's t-test.
The formation of new osteoid is analyzed histologically as follows: hemicalvaria are fixed in 10% buffered formalin for at least 2 days, decalcified in 10% EDTA overnight, processed through graded alcohols and embedded in paraffin wax. Three to 10 μm sections are prepared of the calvaria and stained with hematoxylin and eosin (H&E). Healthy cells, dead cells, old and new bone, and collagen are identified by their distinctive morphology and colouring observed after H&E staining. The surfaces taken by these are measured stereologically (μm^2 readout) and termed Osteoblast area, Debris area, Native and New bone area, Collagen area and Total area (sum of the previous 5 areas), respectively. In addition, the thickness (μm readout) is measured at 8 positions, evenly spaced over the section.
The histological readout of the calvarial skull assay is developed using known osteogenic agents. Hemicalvaria were treated with recombinant human parathyroid hormone (rhPTH).
T0901317 is added to the culture medium of the dissected hemicalvaria at the day of dissection at several doses (19.5, 78.1 and 313 nM), in fourfold. The concentration of the solvent (vehicle), DMSO, is fixed at a final concentration of 0.05%. The medium, containing T0901317 or vehicle control is refreshed every 2-3 days. Hemicalvaria are harvested 7 days after the initiation of the experiment and subjected to the histological analysis described above.

[1] = 19.5, 78.1 and 313 nM, 7 days, H&E histology
[2] = 19.5, 78.1 and 313 nM, 7 days, H&E histology, versus 0.05% DMSO

In the case of `O=S(=O)(c1ccccc1)N(CC(F)(F)F)c1ccc(C(O)(C(F)(F)F)C(F)(F)F)cc1` [T0901317], the thickness [1] was “Dose-response activity”, the “total area (sum of all areas measured)” value [1] was “Dose-response activity” and the collagen area [2] was “Statistically significant increases”. For the same molecule, the new bone area [2] was “Statistically significant increases”, the osteoblast area [2] was “Statistically significant increases; also recorded: Dose-response activity” and the “weight change of calvarial skull explants” value (figure legends FIG. 17 and FIG. 18) was “Weight increases”.

Source: patent publication US20060014231A1, “Methods and compositions to promote bone homeostasis” (priority 2004, published 2006)
